Entries after “also recorded” stand apart in the source; their conditions may differ.
Assays:
Type in all cases: physicochemical
[1] = Crystalline form stability in the formulation process (XRPD); settings: capsule formulation of Table 17, process of Table 18
Source text: Form CSI of the present disclosure and WO2014014835 Form A were made into capsules using the formulation in Table 17 and the preparation process in Table 18. The XRPD patterns were collected before and after the formulation process. […] [table] [table]

[2] = Stability of Form CSI on storage (XRPD form, chemical purity)
Protocol: The parameters for purity tests of the present disclosure are as follows: [table] Approximately 5 mg of solid samples of Form CSI were stored under different conditions of 25° C./60% RH, 40° C./75% RH and 60° C./75% RH. Chemical purity and crystalline form were checked by HPLC and XRPD, respectively.

[3] = Compressibility (tablet hardness, tensile strength); settings: 80 mg, compressed at 10 kN
Protocol: ENERPAC manual tablet press was used for compression. 80 mg of Form CSI and WO2014014835 Form A were weighed and added into the dies of a φ6 mm round tooling, compressed at 10 kN, then stored at room temperature for 24 h until complete elastic recovery. Hardness (H) was tested with an intelligent tablet hardness tester. Diameter (D) and thickness (L) were tested with a caliper. Tensile strength of the powder was calculated with the following formula: T=2H/πDL*9.8. Under a certain force, the greater the tensile strength, the better the compressibility.

[4] = Kinetic solubility in SGF, FaSSIF, FeSSIF and water
Source text: The parameters for kinetic solubility tests of the present disclosure are as follows:
When solubility test is used to predict the in vivo performance of a drug, it is critical to simulate in vivo conditions as closely as possible. For oral medication, Simulated Gastric Fluid (SGF), Fasted-State Simulated Intestinal Fluid (FaSSIF), Fed-State Simulated Intestinal Fluid (FeSSIF) can be used to simulate the condition in vivo and predict the effects of feeding, thus solubility in such mediums is closer to that in vivo.
20 mg of Form CSI and 20 mg of WO2014014835 Form A were suspended into 4.0 mL of SGF, 4.0 mL of FaSSIF, 4.0 mL of FeSSIF and 4.0 mL of water to get saturated solutions. After equilibrated for 1 h, 4 h, 8 h and 24 h, the concentrations (μg/mL) of Compound I of the saturated solutions were measured by UPLC.

[5] = Intrinsic dissolution (IDR); settings: for IDR: slope of data within 5-120 minutes
Protocol: The parameters for intrinsic dissolution tests in the present disclosure are as follows:
Approximately 100 mg of Form CSI or WO2014014835 Form A was added into the cavity of the die, and then compressed at 10 kN and held for 0.5 minute to obtain a tablet having a surface area of 0.5 cm^2. The die with the tablet still embedded was put into a dissolution apparatus to test the intrinsic dissolution. The slope (in μg/min) of the regression line was calculated according to the data within 5-120 minutes. IDR (in μg/min/cm^2) was further calculated according to the slope.

[6] = Physical stability on grinding (XRPD); settings: ground manually for 5 min in a mortar
Protocol: Form CSI and WO2014014835 Form A was ground manually for 5 min in a mortar.

[7] = Hygroscopicity by DVS
Protocol: Dynamic Vapor Sorption (DVS) was measured via an SMS (Surface Measurement Systems Ltd.) intrinsic DVS instrument. Its control software is DVS-Intrinsic control software. Typical parameters for DVS test are as follows: Temperature: 25° C. Gas and flow rate: N2, 200 mL/min dm/dt: 0.002%/min RH range: 0% RH to 95% RH DVS was applied to test the hygroscopicity of Form CSI and WO2014014835 Form A with about 10 mg of samples. The weight gains at each relative humidity were recorded in a cycle of 0-95%-0 RH. XRPD test was applied before and after DVS. Description and definition of hygroscopicity (general notice 9103 drug hygroscopicity test guidelines in 2015 edition of Chinese Pharmacopoeia, test at 25° C.±1° C., 80% RH. The definition of hygroscopicity in the 9th European Pharmacopoeia 5.11 is similar to the Chinese Pharmacopoeia.).

[8] = Pressure stability on tableting (XRPD)
Source text: Certain amount of Form CSI was compressed into tablets under different pressures with suitable tableting die. Crystalline forms before and after tableting were checked by XRPD.

[9] = 25° C./60% RH, sealed, 3 months
[10] = 40° C./75% RH, sealed, 3 months

For Cc1nc(C(=O)NCC(=O)O)c(O)c2ccc(Oc3ccccc3)cc12 [Form CSI, [(4-hydroxy-1-methyl-7-phenoxy-isoquinoline-3-carbonyl)-amino]-acetic acid], the “Crystalline form before and after the formulation process (XRPD)” value [1] was “remains stable”, the “Chemical purity during storage” value ([2]; 25° C./60% RH) was “above 99.5%” and the “Time the drug substance kept stable (crystalline state unchanged)” value ([2]; 25° C./60% RH) was “at least three months”. For the same molecule, the “Crystalline form (XRPD) after storage” value ([2]; 25° C./60% RH, open, 3 months) was “Form CSI”, the Purity after storage ([2]; 25° C./60% RH, open, 3 months) was 99.68% and the “Crystalline form (XRPD) after storage” value [2, 9] was “Form CSI”. For the same molecule, the Purity after storage [2, 9] was 99.65%, the “Time the drug substance kept stable (crystalline state unchanged)” value ([2]; 40° C./75% RH) was “at least three months” and the “Chemical purity during storage” value ([2]; 40° C./75% RH and 60° C./75% RH) was “above 99.5%”. For the same molecule, the “Crystalline form (XRPD) after storage” value ([2]; 40° C./75% RH, open, 3 months) was “Form CSI”, the Purity after storage ([2]; 40° C./75% RH, open, 3 months) was 99.68% and the “Crystalline form (XRPD) after storage” value [2, 10] was “Form CSI”. The Purity after storage [2, 10] was 99.66%, the “Time the drug substance kept stable (crystalline state unchanged)” value ([2]; 60° C./75% RH) was “at least one month” and the “Crystalline form (XRPD) after storage” value ([2]; 60° C./75% RH, open, 1 month) was “Form CSI”. The Purity after storage ([2]; 60° C./75% RH, open, 1 month) was 99.63%, the “Crystalline form (XRPD) after storage” value ([2]; 60° C./75% RH, sealed, 1 month) was “Form CSI” and the Purity after storage ([2]; 60° C./75% RH, sealed, 1 month) was 99.68%. The “Crystalline form (XRPD)” value ([2]; Initial) was “Form CSI”, the Purity ([2]; Initial) was 99.71% and the Tensile strength ([3]; T=2H/πDL*9.8) was 1.22 MPa. The Hardness ([3]; φ6 mm round tooling, after 24 h) was 2.47 kgf, the “Kinetic solubility (concentration of Compound I in saturated solution)” value (“Kinetic solubility” for short) ([4]; FaSSIF, 1 hour) was 617.0 µg/mL and the “Kinetic solubility” value ([4]; FaSSIF, 4 hours) was 934.6 µg/mL. For the same molecule, the “Kinetic solubility” value ([4]; FaSSIF, 8 hours) was 1043.5 µg/mL, the “Kinetic solubility” value ([4]; FaSSIF, 24 hours) was 1109.6 µg/mL and the “Kinetic solubility” value ([4]; FeSSIF, 1 hour) was 180.4 µg/mL. For the same molecule, the “Kinetic solubility” value ([4]; FeSSIF, 4 hours) was 270.3 µg/mL, the “Kinetic solubility” value ([4]; FeSSIF, 8 hours) was 295.3 µg/mL and the “Kinetic solubility” value ([4]; FeSSIF, 24 hours) was 314.4 µg/mL. For the same molecule, the “Kinetic solubility” value ([4]; SGF, 1 hour) was 22.7 µg/mL, the “Kinetic solubility” value ([4]; SGF, 4 hours) was 24.0 µg/mL and the “Kinetic solubility” value ([4]; SGF, 8 hours) was 24.2 µg/mL. The “Kinetic solubility” value ([4]; SGF, 24 hours) was 24.0 µg/mL, the “Kinetic solubility” value ([4]; water, 1 hour) was 18.2 µg/mL and the “Kinetic solubility” value ([4]; water, 4 hours) was 21.9 µg/mL. For the same molecule, the “Kinetic solubility” value ([4]; water, 8 hours) was 34.1 µg/mL, the “Kinetic solubility” value ([4]; water, 24 hours) was 25.7 µg/mL and the “Increase of dissolution rate compared with Form A” value ([5]; pH 4.5 PBS) was 41%. For the same molecule, the Cumulative dissolution ([5]; pH4.5 PBS, 5 min, 37° C., 0.5 cm^2 tablet) was 36.8 µg, the Cumulative dissolution ([5]; pH4.5 PBS, 10 min) was 35.6 µg and the Cumulative dissolution ([5]; pH4.5 PBS, 15 min) was 39.8 µg. The Cumulative dissolution ([5]; pH4.5 PBS, 20 min) was 50.0 µg, the Cumulative dissolution ([5]; pH4.5 PBS, 25 min) was 50.4 µg and the Cumulative dissolution ([5]; pH4.5 PBS, 30 min) was 56.0 µg. For the same molecule, the Cumulative dissolution ([5]; pH4.5 PBS, 45 min) was 70.7 µg, the Cumulative dissolution ([5]; pH4.5 PBS, 60 min) was 83.0 µg and the Cumulative dissolution ([5]; pH4.5 PBS, 90 min) was 114.0 µg. For the same molecule, the Cumulative dissolution ([5]; pH4.5 PBS, 120 min) was 142.3 µg, the IDR ([5]; pH4.5 PBS) was 1.8928 μg/min/cm^2 and the Cumulative dissolution ([5]; pH6.8 PBS, 5 min, 37° C., 0.5 cm^2 tablet) was 440.4 µg. It also gave a Cumulative dissolution ([5]; pH6.8 PBS, 10 min) of 916.0 µg, a Cumulative dissolution ([5]; pH6.8 PBS, 15 min) of 1345.9 µg and a Cumulative dissolution ([5]; pH6.8 PBS, 20 min) of 1758.2 µg. The Cumulative dissolution ([5]; pH6.8 PBS, 25 min) was 2152.9 µg, the Cumulative dissolution ([5]; pH6.8 PBS, 30 min) was 2521.4 µg and the Cumulative dissolution ([5]; pH6.8 PBS, 45 min) was 3392.2 µg. It also gave a Cumulative dissolution ([5]; pH6.8 PBS, 60 min) of 4309.7 µg, a Cumulative dissolution ([5]; pH6.8 PBS, 90 min) of 5967.2 µg and a Cumulative dissolution ([5]; pH6.8 PBS, 120 min) of 7448.5 µg. For the same molecule, the IDR ([5]; pH6.8 PBS) was 120.3256 μg/min/cm^2, the “Crystalline form and crystallinity after grinding (XRPD)” value [6] was “remain unchanged after grinding” and the “Weight gain under 80% RH” value ([7]; DVS, 25° C.) was 0.12%. For the same molecule, the Hygroscopicity class ([7]; weight gain under 80% RH) was “non-hygroscopic or almost non-hygroscopic; also recorded: non hygroscopic or almost non-hygroscopic”, the “Crystalline form after tableting (XRPD)” value ([8]; pressure 10 KN) was “Form CSI” and the “Crystalline form after tableting (XRPD)” value ([8]; pressure 15 KN) was “Form CSI”.
